Experimental findings from patent US10173991B2, “Sulfone amide linked benzothiazole inhibitors of endothelial lipase” (BRISTOL-MYERS SQUIBB COMPANY, priority 2014, dated 2019) are described below.

pIC50: −log10 of the molar value.

What is called pIC50 is the negative decadic logarithm of the IC50, by convention in mol/L. Low readings indicate a high IC50, high ones a low IC50.

Sequence of Endothelial lipase (EL) (Q9Y5X9 21-500): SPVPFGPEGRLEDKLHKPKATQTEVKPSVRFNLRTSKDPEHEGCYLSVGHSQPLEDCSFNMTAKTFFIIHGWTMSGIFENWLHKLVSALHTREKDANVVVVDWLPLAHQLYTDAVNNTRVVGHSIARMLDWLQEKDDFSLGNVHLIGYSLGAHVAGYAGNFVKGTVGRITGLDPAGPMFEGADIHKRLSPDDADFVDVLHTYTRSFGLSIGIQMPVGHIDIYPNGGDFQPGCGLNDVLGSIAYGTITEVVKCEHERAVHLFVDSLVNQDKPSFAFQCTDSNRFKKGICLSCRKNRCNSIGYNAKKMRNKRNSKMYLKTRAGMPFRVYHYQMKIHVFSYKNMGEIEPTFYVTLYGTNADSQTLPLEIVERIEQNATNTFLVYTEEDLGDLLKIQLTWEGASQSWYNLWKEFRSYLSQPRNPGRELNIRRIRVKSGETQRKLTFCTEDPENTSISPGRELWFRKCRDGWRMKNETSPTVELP

The first experiment addresses Endothelial lipase (EL) (Homo sapiens (Human), UniProt Q9Y5X9). Kind of experiment: Endothelial lipase (EL) enzymatic assay with fluorescent substrate A10070 in DMPG vesicles.
Conditions: not given
The class given is biochemical. On the procedure:
Endothelial lipase (EL) and hepatic lipase (HL) activities were measured using a fluorescent substrate, A10070, (Invitrogen, CA) doped into an artificial vesicle containing DMPG (Avanti Polar Lipids) as the excipient. Vesicles were prepared by combining 571 μL of 29 mM DMPG in a 1:1 mixture of MeOH and CHCl3 with 2000 μL of 1 mM A10070 in a 1:1 mixture of MeOH and CHCl3. The mixture was dried under nitrogen in multiple vials then resuspended in 20 mL total volume of 50 mM HEPES pH 8.0 buffer containing 50 mM NaCl and 0.2 mM EDTA. The sample was allowed to sit at room temperature for 15 min and then was sonicated 3×4 mins on ice with a Branson Sonicator using duty cycle 1. This preparation provides vesicles with a mole fraction of 0.11 for the FRET substrate.
The enzymatic assay was measured using 384-well white Optiplates. Each well contained 20 μL of assay buffer (50 mM HEPES pH 8.0, 50 mM NaCl and 1 mM CaCl2) and 0.25 μL of a DMSO solution containing a compound of interest. EL or HL (10 μL) was added and allowed to incubate with the compound for 30 min at 37° C. The source of EL was conditioned media obtained from HT-1080 cells that were transformed using RAGE technology (Athersys) to overexpress endogenous EL, and HL was partially purified from conditioned media obtained from COS cells overexpressing HL. The reaction was started by the addition of 10 μL of a 1:10 dilution of vesicles. The final total reaction volume was […]. The reaction rates were measured on a Gemini plate reader with an excitation wavelength of 490 nm and an emission wavelength of 530 nm. Readings were taken over a period of 60 minutes, and the slope between 300 and 900 secs of the readout was used to calculate the rate of the reaction.
With `O=C(CNC(=O)C(c1nc2ccc(-c3ccc4c(c3)CNC4=O)cc2s1)S(=O)(=O)c1ccc(F)cc1)NC1CC1` (stereo not drawn) [Example 447, N-[(cyclopropyl-carbamoyl)methyl]-2-(4-fluorobenzene-sulfonyl)-2-[6-(1-oxo-2,3-dihydro-1H-isoindol-5-yl)-1,3-benzothiazol-2-yl}acetamide], the pIC50 is 8.05.
Same read-out and setting: in the case of `COc1cc(-c2ccc3nc(C(C(=O)NCC(=O)NC4CC4)S(=O)(=O)c4ccc(F)cc4)sc3c2)ccn1` (stereo not drawn) [Example 454, N-[(cyclopropyl-carbamoyl)methyl]-2-(4-fluorobenzene-sulfonyl)-2-[6-(2-methoxypyridin-4-yl)-1,3-benzothiazol-2-yl]acetamide] it was 7.14.
On the same count and under the same terms, in the case of `CS(=O)(=O)C(C(=O)NCC(=O)NC1CC1)c1nc2cc(F)c(-c3cccc(NC(=O)OCc4ccccc4)c3)cc2s1` (stereo not drawn) [Example 550, benzyl N-{3-[2-({[(cyclopropyl-carbamoyl)methyl]carbamoyl} (methanesulfonyl)methyl)-5-fluoro-1,3-benzothiazol-6-yl]phenyl} carbamate] it was 9.00.
The compound `COCCS(=O)(=O)C(C(=O)NCC(=O)NC1CC1)c1nc2cc(-c3ccc(N4CCCC4)nc3)ccc2s1` (stereo not drawn) [Example 71, N-[(cyclopropyl-carbamoyl)methyl]-2-(2-methoxyethane-sulfonyl)-2-{5-[6-(pyaolidin-1-yl)pyridin-3-yl]-1,3-benzothiazol-2-yl} acetamide] had a pIC50 of 7.60.
The same measure, in the same setting: in the case of `Cc1cc2nc(C(C(=O)NCC(=O)NC3CC3)S(=O)(=O)C(C)C)sc2cc1-c1ccc(=O)n(C(C)C)c1` (stereo not drawn) [Example 207, N-[(cyclopropyl-carbamoyl)methyl]-2-{5-methyl-6-[6-oxo-1-(propan-2-yl)-1,6-dihydropyridin-3-yl]-1,3-benzothiazol-2-yl}-2-(propane-2-sulfonyl) acetamide] it was 8.00; in that of `COCCS(=O)(=O)C(C(=O)NCC(=O)NC1CC1)c1nc2cc(-c3ccccc3)c(F)cc2s1` (stereo not drawn) [Example 612, N-[(cyclopropyl-carbamoyl)methyl]-2-(6-fluoro-5-phenyl-1,3-benzothiazol-2-yl)-2-(2-methoxyethane-sulfonyl)acetamide], 8.52.
Still for that read-out and setting: under `COCCS(=O)(=O)C(C(=O)NCC(=O)NC1CC1)c1nc2ccc(-c3ccc(C(=O)O)cc3)cc2s1` (stereo not drawn) [Example 408, 4-[2-({[(cyclopropyl-carbamoyl)methyl]carbamoyl}(2-methoxyethane-sulfonyl)methyl)-1,3-benzothiazol-6-yl]benzoic acid] stands 7.32; under `Cc1cc2nc(C(C(=O)NCC(=O)NC3CC3)S(=O)(=O)C(C)C)sc2cc1-c1ccc(C(C)C)nc1` (stereo not drawn) [Example 253, N-[(cyclopropyl-carbamoyl)methyl]-2-{5-methyl-6-[6-(propan-2-yl)pyridin-3-yl]-1,3-benzothiazol-2-yl}-2-(propane-2-sulfonyl) acetamide], 8.15.
Take `COCCS(=O)(=O)C(C(=O)NCC(=O)NC1CC1)c1nc2cc(Cl)c(-c3ccc(NC(=O)OC)cc3)cc2s1` (stereo not drawn) [Example 94, methyl N-{4-[5-chloro-2-({[(cyclopropyl-carbamoyl)methyl]carbamoyl}(2-methoxyethane-sulfonyl)methyl)-1,3-benzothiazol-6-yl]phenyl} carbamate]: the negative logarithm of the IC50 (pIC50) is 8.70.
On the same count and under the same terms, under `COCCNC(=O)CNC(=O)C(c1nc2ccc(-c3ccc(C(=O)NCCOC)cc3)cc2s1)S(=O)(=O)c1ccc(F)cc1` (stereo not drawn) [Example 462, 4-{2-[(4-fluorobenzene-sulfonyl)({[(2-methoxyethyl)carbamoyl]methyl}carbamoyl)methyl]-1,3-benzothiazol-6-yl}-N-(2-methoxyethyl) benzamide] stands 8.40; under `O=C(CNC(=O)C(c1nc2ccc(-c3ccccc3)cc2s1)S(=O)(=O)c1ccc(F)cc1)NC1CC1` (stereo not drawn) [Example 449, N-[(cyclopropyl-carbamoyl)methyl]-2-(4-fluorobenzene-sulfonyl)-2-(6-phenyl-1,3-benzothiazol-2-yl)acetamide], 7.80; under `COCCS(=O)(=O)C(C(=O)NCC(=O)NC1CC1)c1nc2ccc(-c3ccn(C)c(=O)c3)cc2s1` (stereo not drawn) [Example 316, N-[(cyclopropyl-carbamoyl)methyl]-2-(2-methoxyethane-sulfonyl)-2-[6-(1-methyl-2-oxo-1,2-dihydropyridin-4-yl)-1,3-benzothiazol-2-yl]acetamide], 7.89.
Same read-out and setting: under `COCCS(=O)(=O)C(C(=O)NCC(=O)NC1CC1)c1nc2cc(C(F)(F)F)c(-c3ccn(C)c(=O)c3)cc2s1` (stereo not drawn) [Example 176, N-[(cyclopropyl-carbamoyl)methyl]-2-(2-methoxyethane-sulfonyl)-2-[6-(1-methyl-2-oxo-1,2-dihydropyridin-4-yl)-5-(trifluoromethyl)-1,3-benzothiazol-2-yl]acetamide] stands 7.43.
On the same count and under the same terms, in the case of `CS(=O)(=O)C(C(=O)NCC(=O)NC1CC1)c1nc2ccc(-c3ccc(=O)n(-c4ccccc4)c3)cc2s1` (stereo not drawn) [Example 583, N-[(cyclopropyl-carbamoyl)methyl]-2-methanesulfonyl-2-[6-(6-oxo-1-phenyl-1,6-dihydropyridin-3-yl)-1,3-benzothiazol-2-yl]acetamide] it was 7.70; in that of `O=C(CNC(=O)C(c1nc2cc(-c3ccc(NC(=O)OCc4ccccc4)nc3)c(F)cc2s1)S(=O)(=O)CCC(F)(F)F)NC1CC1` (stereo not drawn) [Example 543, benzyl N-{5-[2-({[(cyclopropyl-carbamoyl)methyl]carbamoyl}(3,3,3-trifluoropropane-sulfonyl)methyl)-6-fluoro-1,3-benzothiazol-5-yl]pyridin-2-yl} carbamate], 8.22; in that of `COCCS(=O)(=O)C(C(=O)NCC(=O)NC1CC1)c1nc2c(F)cc(-c3ccc4[nH]c(=O)ccc4c3)cc2s1` (stereo not drawn) [Example 216, N-[(cyclopropyl-carbamoyl)methyl]-2-[4-fluoro-6-(2-oxo-1,2-dihydroquinolin-6-yl)-1,3-benzothiazol-2-yl]-2-(2-methoxyethane-sulfonyl) acetamide], 7.72.
Compound `CC(C)S(=O)(=O)C(C(=O)NCC(=O)NC1CC1)c1nc2cc(F)c(-c3ccc(NC(=O)CCc4ccccc4)cc3)cc2s1` (stereo not drawn) [Example 578, N-{4-[2-({[(cyclopropyl-carbamoyl)methyl]carbamoyl} (propane-2-sulfonyl)methyl)-5-fluoro-1,3-benzothiazol-6-yl]phenyl}-3-phenyl-propanamide] gave a pIC50 of 8.40.
On the same count and under the same terms, under `COCCS(=O)(=O)C(C(=O)NCC(=O)NC1CC1)c1nc2ccc(-c3cnnc(C)c3)cc2s1` (stereo not drawn) [Example 292, N-[(cyclopropyl-carbamoyl)methyl]-2-(2-methoxyethane-sulfonyl)-2-[6-(6-methylpyridazin-4-yl)-1,3-benzothiazol-2-yl]acetamide] stands 7.51; under `N#CCS(=O)(=O)C(C(=O)NCC(=O)NC1CC1)c1nc2cc(F)c(-c3ccc(NC(=O)OCc4ccccc4)cc3)cc2s1` (stereo not drawn) [Example 47, benzyl N-(4-{2-[(cyanomethane-sulfonyl) ({[(cyclopropyl-carbamoyl)methyl]carbamoyl}methyl]-5-fluoro-1,3-benzothiazol-6-yl}phenyl) carbamate], 8.70; under `O=C(CNC(=O)C(c1nc2cc(F)c(-c3ccc(-c4ccn[nH]4)cc3)cc2s1)S(=O)(=O)CCC(F)(F)F)NC1CC1` (stereo not drawn) [Example 144, N-[(cyclopropyl-carbamoyl)methyl]-2-{5-fluoro-6-[4-(1H-pyrazol-5-yl)phenyl]-1,3-benzothiazol-2-yl}-2-(3,3,3-trifluoropropane-sulfonyl) acetamide], 9.00.

The experiment is the same for the next values; noted with them: EL from conditioned media of HT-1080 cells; 30 min preincubation at 37° C.
On to `COCCS(=O)(=O)C(C(=O)NCC(=O)NC1CC1)c1nc2ccc(-c3ccc(C(=O)N(C)C4CC4)cc3)cc2s1` (stereo not drawn) [Example 393, N-Cyclopropyl-4-(2-(2-((2-(cyclopropylamino)-2-oxoethyl)amino)-1-((2-methoxyethyl)sulfonyl)-2-oxoethyl)benzo[d]thiazol-6-yl)-N-methylbenzamide], for which the pIC50 was 7.48.
The same measure, in the same setting: in the case of `COCCS(=O)(=O)C(C(=O)NCC(=O)NC1CC1)c1nc2ccc(-c3ccc(N(C)C(=O)OC(C)(C)C)cc3)cc2s1` (stereo not drawn) [Example 60, tert-Butyl N-{4-[2-({[(cyclopropylcarbamoyl)methyl]carbamoyl}(2-methoxyethanesulfonyl)methyl)-1,3-benzothiazol-6-yl]phenyl}-N-methylcarbamate] it was 8.52; in that of `COC(=O)Nc1ccccc1-c1cc2sc(C(C(=O)NCC(=O)NC3CC3)S(C)(=O)=O)nc2cc1F` (stereo not drawn) [Example 532, Methyl N-{2-[2({[(cyclopropylcarbamoyl)methyl]carbamoyl}(methanesulfonyl)methyl)-5-fluoro-1,3-benzothiazol-6-yl]phenyl}carbamate], 6.96; in that of `COCCS(=O)(=O)C(C(=O)NCC(=O)NC1CC1)c1nc2cc(C(=O)N3CCOCC3)c(F)cc2s1` (stereo not drawn) [Example 425, N-(2-(Cyclopropylamino)-2-oxoethyl)-2-(6-fluoro-5-(morpholine-4-carbonyl)benzo[d]thiazol-2-yl)-2-((2-methoxyethyl)sulfonyl)acetamide], 6.69.
